Assay results from ChEMBL document CHEMBL1201862, “PubChem BioAssay data set” (2004).
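Grown in 96-well plates, cells were treated for 48 hours with each compound at five concentrations. Insufficient inhibition: endpoint recorded as highest concentration tested. The concentration for 50% growth inhibition is given as GI50.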 Activity calls are given as the source filed them. No stated cut-off is given here; in the data, active = GI50 up to about 1.1 µM and inactive = higher.

Experiments:
Test in all cases: NCI-60 cell line screen, 48 h
Malme-3M = test system: Malme-3M
TK-10 = test system: TK-10
OVCAR-3 = test system: OVCAR-3
RXF 393 = test system: RXF 393
KM12 = test system: KM12
HT-29 = test system: HT-29
HOP-62 = test system: HOP-62
UACC-257 = test system: UACC-257
SK-MEL-28 = test system: SK-MEL-28
UO-31 = test system: UO-31
HCT-116 = test system: HCT-116
K562 = test system: K562
SK-OV-3 = test system: SK-OV-3
SF-268 = test system: SF-268
SK-MEL-2 = test system: SK-MEL-2
NCI-H226 = test system: NCI-H226
OVCAR-5 = test system: OVCAR-5
SK-MEL-5 = test system: SK-MEL-5
IGROV-1 = test system: IGROV-1
CAKI-1 = test system: CAKI-1

Measured: GI50

CCC(=O)NC(OCC1(CC)COC1)(C(F)(F)F)C(F)(F)F
inactive: Malme-3M > 100 µM | TK-10 > 100 µM | OVCAR-3 > 100 µM | RXF 393 92.3 µM | KM12 > 100 µM | HT-29 > 100 µM | HOP-62 > 100 µM | UACC-257 > 100 µM | SK-MEL-28 > 100 µM | UO-31 > 100 µM | HCT-116 > 100 µM | K562 > 100 µM | SK-OV-3 > 100 µM | SF-268 > 100 µM | SK-MEL-2 > 100 µM | NCI-H226 > 100 µM | OVCAR-5 > 100 µM

OCc1nnn2c1CCC2
inactive: Malme-3M > 100 µM | TK-10 > 100 µM | OVCAR-3 > 100 µM | SK-MEL-5 > 100 µM | RXF 393 > 100 µM | KM12 > 100 µM | HT-29 > 100 µM | IGROV-1 > 100 µM | HOP-62 > 100 µM | UACC-257 > 100 µM | SK-MEL-28 > 100 µM | UO-31 > 100 µM | K562 > 100 µM | SK-OV-3 > 100 µM | SK-MEL-2 > 100 µM | OVCAR-5 > 100 µM

CC(=O)OCC1OC(n2cc(F)c(=O)[nH]c2=O)C(N)C(OC(C)=O)C1OC(C)=O (stereo unspecified)
inactive: Malme-3M > 100 µM | OVCAR-3 > 100 µM | SK-MEL-5 > 100 µM | RXF 393 > 100 µM | KM12 > 100 µM | HT-29 > 100 µM | IGROV-1 > 100 µM | HOP-62 > 100 µM | UACC-257 > 100 µM | CAKI-1 > 100 µM | UO-31 > 100 µM | HCT-116 > 100 µM | K562 > 100 µM | SK-OV-3 > 100 µM | SF-268 > 100 µM | SK-MEL-2 > 100 µM | NCI-H226 > 100 µM | OVCAR-5 > 100 µM

Cc1[nH]c(=O)[nH]c(=O)c1/C=C/C(=O)NC(CO)C[S+]([O-])C[S+](C)[O-] (stereo unspecified)
inactive: Malme-3M 12.2 µM | OVCAR-3 7.87 µM | SK-MEL-5 18 µM | RXF 393 20.8 µM | KM12 18.4 µM | HT-29 125 µM | IGROV-1 12.6 µM | HOP-62 16.6 µM | UACC-257 21.8 µM | CAKI-1 4.93 µM | SK-MEL-28 17.8 µM | UO-31 23.7 µM | HCT-116 19.3 µM | K562 19.5 µM | SK-OV-3 20.5 µM | SF-268 4.17 µM | SK-MEL-2 13.5 µM | NCI-H226 17.5 µM | OVCAR-5 135 µM

CCCO[C@@H]1[C@@H](OC(C)=O)[C@@H](OC(C)=O)C(C)(C)/C=C/[C@H](C)C(=O)[C@@]2(OC(C)=O)C[C@@](C)(OC(C)=O)[C@H](OC(C)=O)[C@@H]2[C@H]2OC(=O)CC[C@@]12OC(=O)c1ccccc1
inactive: Malme-3M 17.5 µM | TK-10 > 25 µM | OVCAR-3 > 25 µM | SK-MEL-5 19.1 µM | RXF 393 > 25 µM | KM12 > 25 µM | HT-29 5.18 µM | IGROV-1 > 25 µM | HOP-62 > 25 µM | UACC-257 > 25 µM | CAKI-1 17.7 µM | UO-31 > 25 µM | HCT-116 6.97 µM | K562 4.63 µM | SK-OV-3 > 25 µM | SF-268 > 25 µM | SK-MEL-2 > 25 µM | NCI-H226 > 25 µM | OVCAR-5 > 25 µM

O=C1C(c2ccc(C3=[N+]([O-])c4cc([N+](=O)[O-])ccc4C3=O)cc2)=[N+]([O-])c2cc([N+](=O)[O-])ccc21
inactive: Malme-3M > 10 µM | TK-10 > 10 µM | OVCAR-3 > 10 µM | SK-MEL-5 > 10 µM | RXF 393 > 10 µM | KM12 > 10 µM | HT-29 > 10 µM | IGROV-1 > 10 µM | HOP-62 66.7 µM | UACC-257 > 10 µM | CAKI-1 > 10 µM | SK-MEL-28 > 10 µM | UO-31 > 10 µM | HCT-116 > 10 µM | K562 > 10 µM | SK-OV-3 > 10 µM | SK-MEL-2 > 10 µM | NCI-H226 > 10 µM | OVCAR-5 > 10 µM

COc1ccc2[nH]c(Cl)c(/C=C3/C(=O)Nc4cc(C)c(OC)cc43)c2c1
inactive: Malme-3M 5.82 µM | TK-10 9.18 µM | OVCAR-3 2.66 µM | SK-MEL-5 2.25 µM | RXF 393 11.1 µM | KM12 3.35 µM | HT-29 4.23 µM | IGROV-1 4.31 µM | HOP-62 5.48 µM | UACC-257 11.4 µM | CAKI-1 7.35 µM | SK-MEL-28 9.38 µM | UO-31 12.2 µM | HCT-116 4.59 µM | K562 4.39 µM | SK-OV-3 2.52 µM | SF-268 5.75 µM | SK-MEL-2 2.4 µM | OVCAR-5 6.93 µM

C1#Cc2ccccc2OCCOc2ccccc2C#Cc2ccccc2OCCOc2ccccc21
inactive: Malme-3M 28.1 µM | TK-10 28.8 µM | OVCAR-3 14 µM | SK-MEL-5 18.2 µM | RXF 393 14.7 µM | KM12 68.2 µM | HT-29 66.5 µM | IGROV-1 15.6 µM | HOP-62 8.77 µM | UACC-257 > 100 µM | CAKI-1 17.7 µM | SK-MEL-28 70.8 µM | UO-31 46.7 µM | HCT-116 32.7 µM | K562 11.7 µM | SF-268 19.7 µM | SK-MEL-2 71 µM | NCI-H226 19.1 µM | OVCAR-5 24 µM

O=C1CSc2sc(=S)sc2S1
inactive: Malme-3M > 100 µM | OVCAR-3 > 100 µM | SK-MEL-5 > 100 µM | RXF 393 43.1 µM | KM12 > 100 µM | HT-29 > 29.2 µM | IGROV-1 > 100 µM | HOP-62 > 100 µM | UACC-257 > 100 µM | SK-MEL-28 > 100 µM | UO-31 > 100 µM | HCT-116 > 100 µM | K562 > 100 µM | SK-OV-3 > 75.3 µM | SF-268 > 100 µM | SK-MEL-2 > 82.4 µM | NCI-H226 > 100 µM | OVCAR-5 > 100 µM

CCN(CC)CCNCc1cc(Cl)cc2c1OCOC2
inactive: Malme-3M > 10 µM | TK-10 > 10 µM | OVCAR-3 > 10 µM | SK-MEL-5 > 10 µM | RXF 393 > 10 µM | KM12 > 10 µM | HT-29 > 10 µM | IGROV-1 > 10 µM | HOP-62 > 10 µM | CAKI-1 > 10 µM | SK-MEL-28 > 10 µM | UO-31 > 10 µM | HCT-116 > 10 µM | K562 > 10 µM | SK-OV-3 > 10 µM | SF-268 > 10 µM | SK-MEL-2 > 10 µM | NCI-H226 > 10 µM | OVCAR-5 > 10 µM

O=c1cnn(CCOCP(=O)(O)O)c(=O)[nH]1
inactive: Malme-3M > 100 µM | TK-10 > 100 µM | OVCAR-3 > 100 µM | SK-MEL-5 > 100 µM | RXF 393 > 100 µM | KM12 > 100 µM | HT-29 > 100 µM | IGROV-1 > 100 µM | HOP-62 > 100 µM | UACC-257 > 100 µM | CAKI-1 > 100 µM | SK-MEL-28 > 100 µM | UO-31 > 100 µM | K562 > 100 µM | SF-268 > 100 µM | SK-MEL-2 > 100 µM | NCI-H226 > 100 µM | OVCAR-5 > 100 µM
